In US10759790B2, “Heterocyclic constrained tricyclic sulfonamides as anti-cancer agents” (ICAHN SCHOOL OF MEDICINE AT MOUNT SINAI, priority 2015, dated 2020):

Tests used:
H1650 lung cancer cells = assay: Cell viability assay (MTT, IC50 determination); format: cell-based; conditions: Homo sapiens, NCI-H1650; H1650 lung cancer cells, MTT, 48 hours after drug treatment; read-out: H1650 cell viability IC50
Method: Cell viability assays were performed according to Denizot, F. and R. Lang, Journal of Immunological Methods, 1986. 89(22): p. 271-277. H1650 lung cancer cells were plated at 150,000 cells per well in a 12 well plate. Twenty-four hours after plating, cells were treated as described with increasing concentrations of drug and control. Forty-eight hours after drug treatment, cells were treated with 100 μL of 3-(4,5-Dimethylthiazol-2-yl)-2,5-diphenyltetrazolium bromide (MTT) and incubated for 2 hours at 37 C. The MTT solution was subsequently replaced with 300 μL of n-propyl alcohol and re-aliquoted to a 96 well plate. Spectrophotometric analysis of each solution was performed using a 96 well plate reader at 600 nm in triplicate.

[1] = In vivo cancer model: body weights and signs of toxicity (Example 2a); design: species or system BALB/c nu/nu mice; conditions: 5 mg/kg BID oral gavage
Method: (§1) To assess the in vivo effects of the compounds, subcutaneous xenograft of lung cancer cell line H358 was generated. Cells (5×10^6) were injected into the right flank of 6- to 8-week-old male BALB/c nu/nu mice (Charles River, Wilmington, Mass.). Tumor volume was assessed twice a week by caliper measurement. Mice were randomized to treatment groups based on initial tumor volume average of 200 mm^3 per group. Mice were dosed by oral gavage with 5 mg/kg Example 2a BID. Mouse tumors were measured twice a week for the duration of the study. Mouse body weights were recorded weekly and percentage of mice body weights during treatment was calculated as: weight at each time point/initial weight×100.

[2] = test system: lung cancer cell line H358; assay: In vivo cancer model: subcutaneous H358 xenograft, tumor volume (Example 2a); design: species or system BALB/c nu/nu mice; conditions: 5 mg/kg BID oral gavage
Method: as §1

[3] = In vivo H358 xenograft model: body weights and signs of toxicity (Example 17b); design: species or system BALB/c nu/nu mice; conditions: 5 mg/kg BID oral gavage
Method: (§2) To evaluate the efficacy of Example 17b in vivo, xenograft model was utilized using the H358 cell line. H358 cells (1×10^7) were injected into the right flank of 6- to 8-week-old male BALB/c nu/nu mice. Mice were randomized to treatment groups based on initial tumor volume. Tumor volume was assessed twice a week by caliper measurement, until volumes reached an average of 200 mm^3. Mice were treated by oral gavage with vehicle control or Example 17b (5 mg/kg) BID. The treatment schedules were initiated, and the mouse tumors were measured every other day for the duration of the study. Mice body weights were recorded weekly and percentage of mice body weights during treatment was calculated as: weight at each time point/initial weight×100.

H358 cell line = assay: In vivo H358 xenograft model, tumor volume (Example 17b); design: species or system BALB/c nu/nu mice; conditions: 5 mg/kg BID oral gavage, treatment day 32
Method: as §2

SMILES: O=S(=O)(N[C@@H]1COC[C@H](N2c3ccccc3Oc3ccccc32)[C@H]1O)c1ccc(OC(F)(F)F)cc1 [Example 2a, N-((3R,4R,5S)-4-hydroxy-5-(10H-phenoxazin-10-yl)tetrahydro-2H-pyran-3-yl)-4-(trifluoromethoxy)benzenesulfonamide]
- IC50 (H1650 lung cancer cells): 15 µM
- Signs of toxicity (mucous diarrhea, abdominal stiffness and weight loss) [1]: no adverse signs were observed
- Toxicity as judged from animal body weights versus vehicle control [1]: No statistically significant toxicity was observed
- % T/C (mean body weight) ([1]; H358 xenograft mice): 96.36%
- % T/C (median body weight) ([1]; H358 xenograft mice): 96.92%
- Mean body weight ([1]; H358 xenograft mice): 30.21 g
- Median body weight ([1]; H358 xenograft mice): 29.95 g
- % T/C (mean tumor volume) ([2]; treatment day 17): 28.82%
- % T/C (median tumor volume) ([2]; treatment day 17): 25.82%
- Inhibition of tumor growth versus vehicle control ([2]; treatment day 17): statistically significant inhibition of tumor (T) growth versus vehicle control (C)
- Mean Tumor Volume (T) ([2]; treatment day 17, in mm³): 208.64
- Median Tumor Volume (T) ([2]; treatment day 17, in mm³): 191.78

SMILES: O=S(=O)(N[C@H]1CNC[C@@H](N2c3ccccc3Oc3ccccc32)[C@@H]1O)c1ccc(OC(F)(F)F)cc1 [Example 17b, N-((3S,4S,5R)-4-hydroxy-5-(10H-phenoxazin-10-yl)piperidin-3-yl)-4-(trifluoromethoxy)benzenesulfonamide]
- IC50 (H1650 lung cancer cells): 10 µM
- Signs of toxicity (mucous diarrhea, abdominal stiffness and weight loss) [3]: no adverse signs were observed
- Toxicity as judged from animal body weights versus vehicle control [3]: No statistically significant toxicity was observed
- % T/C (mean body weight) ([3]; H358 xenograft mice): 100.5%
- % T/C (median body weight) ([3]; H358 xenograft mice): 99.4%
- Mean body weight ([3]; H358 xenograft mice): 34.41 g
- Median body weight ([3]; H358 xenograft mice): 34.1 g
- % T/C (mean tumor volume) (H358 cell line): 55%
- % T/C (median tumor volume) (H358 cell line): 54%
- Inhibition of tumor growth versus vehicle control (H358 cell line): statistically significant inhibition of tumor (T) growth versus vehicle control (C)
- Mean Tumor Volume (T) (H358 cell line): 562 mm^3
- Median Tumor Volume (T) (H358 cell line): 520 mm^3
